# Experimental data reported in ChEMBL document CHEMBL4229552, “Optimization of 5-arylidene barbiturates as potent, selective, reversible LSD1 inhibitors for the treatment of acute promyelocytic leukemia” (Bioorg Med Chem, 2018).
# The source made the active and inactive calls. No cut-off for these calls is given here.
# Experiments:
# [1] = biological target: T1, Lysine-specific histone demethylase 1A (Homo sapiens, UniProt O60341)
# NB-4 [2] = test: Induction of differentiation of human NB4 cells assessed as increase in CD11b positive cells at 0.5 to 5 uM by flow cytometric analysis; type: functional, cell-based
# [3] = biological target: T1, Lysine-specific histone demethylase 1A; remark: listed apart in the source
# NB-4 [4] = test: Induction of differentiation of human NB4 cells assessed as increase in CD11b positive cells at 2.5 uM by flow cytometric analysis relative to control; type: functional
# NB-4 [5] = test: Induction of differentiation of human NB4 cells assessed as increase in CD11b positive cells at 5 uM by flow cytometric analysis relative to control; type: functional
# NB-4 [6] = test: Induction of differentiation of human NB4 cells assessed as increase in CD11b positive cells at 1.25 uM by flow cytometric analysis relative to control; type: functional, cell-based
# NB-4 [7] = test: Induction of differentiation of human NB4 cells assessed as increase in CD11b positive cells at 10 uM by flow cytometric analysis relative to control; type: functional
# [8] = biological target: T1, Lysine-specific histone demethylase 1A; test: Inhibition of LSD1 in HEK293 cells assessed as increase in H3K4me1 levels at 10 uM after 24 hrs by Western blot method; type: cell-based
# Homo sapiens [9] = organism: Homo sapiens
# [10] = biological target: T2, Amine oxidase [flavin-containing] A (Homo sapiens, UniProt P21397); test: Inhibition of recombinant full length N-terminal FLAG-tagged human MAO-A expressed in baculovirus infected Sf9 insect cells using […] as substrate after 1 hr by spectrometric method
# T2 sequence (P21397 whole entry): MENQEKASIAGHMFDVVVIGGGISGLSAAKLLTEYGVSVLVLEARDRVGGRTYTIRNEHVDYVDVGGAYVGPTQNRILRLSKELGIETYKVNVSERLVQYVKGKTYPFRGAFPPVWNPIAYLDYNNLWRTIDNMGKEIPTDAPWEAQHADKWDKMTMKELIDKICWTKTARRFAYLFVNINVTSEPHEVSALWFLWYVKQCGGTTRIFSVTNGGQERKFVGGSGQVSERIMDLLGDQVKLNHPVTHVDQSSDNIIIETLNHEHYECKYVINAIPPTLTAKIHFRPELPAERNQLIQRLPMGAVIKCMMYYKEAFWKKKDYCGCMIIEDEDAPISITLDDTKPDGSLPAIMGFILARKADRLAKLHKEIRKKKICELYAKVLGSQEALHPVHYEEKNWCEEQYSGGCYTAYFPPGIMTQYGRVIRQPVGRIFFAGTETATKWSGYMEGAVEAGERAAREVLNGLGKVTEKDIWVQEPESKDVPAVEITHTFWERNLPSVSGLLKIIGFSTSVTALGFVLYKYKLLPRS
# [11] = biological target: T1, Lysine-specific histone demethylase 1A; settings: 4.1 uM
# [12] = biological target: T1, Lysine-specific histone demethylase 1A; test: Inhibition of LSD1 in HEK293 cells assessed as increase in H3K4me2 levels at 2.5 uM after 24 hrs by Western blot method; type: cell-based
# Homo sapiens [13] = organism: Homo sapiens; remark: listed apart in the source
# [14] = biological target: T3, Amine oxidase [flavin-containing] B (Homo sapiens, UniProt P27338); test: Inhibition of recombinant full length N-terminal FLAG-tagged human MAO-B expressed in baculovirus infected Sf9 insect cells using […] as substrate after 1 hr by spectrometric method
# T3 sequence (P27338 whole entry): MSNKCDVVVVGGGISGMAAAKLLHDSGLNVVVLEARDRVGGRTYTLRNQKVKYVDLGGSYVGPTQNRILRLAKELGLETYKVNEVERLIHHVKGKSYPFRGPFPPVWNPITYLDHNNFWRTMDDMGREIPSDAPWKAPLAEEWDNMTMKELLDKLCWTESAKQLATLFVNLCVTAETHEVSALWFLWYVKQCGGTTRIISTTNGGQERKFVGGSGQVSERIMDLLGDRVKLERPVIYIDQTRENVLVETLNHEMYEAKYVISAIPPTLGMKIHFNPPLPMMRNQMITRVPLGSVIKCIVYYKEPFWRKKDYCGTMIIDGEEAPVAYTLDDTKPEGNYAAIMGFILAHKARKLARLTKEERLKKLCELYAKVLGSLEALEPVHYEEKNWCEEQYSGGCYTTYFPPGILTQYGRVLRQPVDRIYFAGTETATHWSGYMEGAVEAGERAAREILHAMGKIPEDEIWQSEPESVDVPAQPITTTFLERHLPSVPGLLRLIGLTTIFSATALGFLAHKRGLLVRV
# [15] = biological target: T1, Lysine-specific histone demethylase 1A; test: Binding affinity to fluorescently labeled recombinant human LSD1 expressed in Escherichia coli by MST analysis
smiles,measurement,setting,value
COc1ccc(C=C2C(=O)NC(=O)N(c3ccc(Br)cc3)C2=O)cc1OC,IC50,[1],2.8 µM
COc1ccc(N2C(=O)NC(=O)C(=Cc3ccc(O)c(O)c3)C2=O)cc1,IC50,[1],3.1 µM
O=C1NC(=O)N(c2ccc(Br)cc2)C(=O)C1=Cc1ccc(O)c(O)c1,Activity,NB-4 [2],Active
same,IC50,[1],0.3 µM
same,Ratio IC50,[3],12
COc1ccc(C=C2C(=O)NC(=O)N(c3ccc(Br)cc3)C2=O)c(OC)c1OC,IC50,[1],3.6 µM
COc1cc(C=C2C(=O)NC(=O)N(c3ccc(Br)cc3)C2=O)cc(OC)c1O,Activity,NB-4 [4],Active
same,IC50,[1],0.55 µM
same,Activity,NB-4 [5],Active
same,Activity,NB-4 [6],Active
COc1ccc(C=C2C(=O)NC(=O)N(c3ccc(Br)cc3)C2=O)cc1O,IC50,[1],3.6 µM
CCc1ccc(N2C(=O)NC(=O)/C(=C\c3cc4ccccc4[nH]3)C2=O)cc1,IC50,[1],6.42 µM
COc1cc(C=C2C(=O)NC(=O)N(c3ccc(Br)cc3)C2=O)ccc1O,Activity,NB-4 [4],Active
same,IC50,[1],0.87 µM
same,Activity,NB-4 [5],Active
same,Activity,NB-4 [6],Active
COc1ccc(CC2C(=O)NC(=O)N(c3ccc(Br)cc3)C2=O)cc1OC (configuration not stated),IC50,[1],> 75 µM
O=C1NC(=S)N(c2ccc(Br)cc2)C(=O)C1=Cc1ccc(O)c(O)c1,Activity,NB-4 [7],89.7%
same,inhibition,[8],Active
same,Ratio IC50,Homo sapiens [9],177
same,IC50,[10],72.5 µM
same,Activity,[11],98.2%
same,inhibition,[12],Active
same,Ratio IC50,Homo sapiens [13],> 487
same,IC50,[14],> 200 µM
same,Activity,NB-4 [4],12.5%
same,Kd,[15],1.1 µM
same,IC50,[1],0.41 µM
same,Activity,NB-4 [5],36.6%
N#Cc1ccc(N2C(=O)NC(=O)C(=Cc3ccc(O)c(O)c3)C2=O)cc1,Activity,NB-4 [2],Active
same,IC50,[1],1.2 µM
CN1CCN(C(=O)CN[C@H]2C[C@@H]2c2ccc(OCc3ccccc3)cc2)CC1,Activity,NB-4 [2],Active
Cc1ccc(N2C(=O)NC(=O)C(=Cc3cccc(O)c3)C2=O)cc1,IC50,[1],23 µM
Cc1ccc(N2C(=O)NC(=O)C(=Cc3cc4ccccc4[nH]3)C2=O)cc1,Activity,NB-4 [2],Active
same,IC50,[1],1.1 µM
Cc1ccccc1N1C(=O)NC(=O)C(=Cc2cc3ccccc3[nH]2)C1=O,IC50,[1],4.4 µM
COc1ccc(N2C(=O)NC(=O)/C(=C\c3ccc(N4CCOCC4)c(F)c3)C2=O)cc1,IC50,[1],18.2 µM
